Laboratory results from US20240109836A1, “NON-HALL[…] ANALOGS FOR TREATMENT OF NEUROLOGICAL AND PSYCHIATRIC DISORDERS” (The Trustees of Columbia University in the City of New York, priority 2021, published 2024).

Tests used:
5-HT2B = 5-HT2B (Homo sapiens, UniProt P41595); assay: IP1 agonist functional assay; assay type: cell-based
5-HT2A = 5-HT2A (Homo sapiens, UniProt P28223); assay: IP1 agonist functional assay; assay type: cell-based
[1] = Head twitch response assay; assay type: in vivo, Mice (C57bl/6J); details: mice, 1, 3, 10, and 30 mg/kg s.c., vs positive control DOI
Procedure: FIG. 2. […] N=5 mice in each cohort. […] Drugs were administered s.c.
Mice (C57bl/6J, 8-15 weeks, 26-33 g) were weighed and moved to the testing room 30 minutes prior to experimentation. Mice were administered the experimental compound at a selected dose s.c. and then immediately moved to a new cage. Before beginning the test, mice were allowed to remain in this cage for a set amount of time ranging 0-10 min based on the compound. The head twitch assay was performed by a trained observer watching the mouse for a 10 min duration and recording the total number of head twitches observed.
DOI was tested at the doses of 1, 3, 10 and 30 mg/kg (s.c., 5 mice per dose) and testing began immediately after administration of the compound. Ariadne (32), (29) and (38) were tested at the doses of 1, 3, 10, and 30 mg/kg (s.c., 5 mice per dose) and there was a 10 min interval between treatment and testing.

5-HT2A, sequence (P28223 whole entry): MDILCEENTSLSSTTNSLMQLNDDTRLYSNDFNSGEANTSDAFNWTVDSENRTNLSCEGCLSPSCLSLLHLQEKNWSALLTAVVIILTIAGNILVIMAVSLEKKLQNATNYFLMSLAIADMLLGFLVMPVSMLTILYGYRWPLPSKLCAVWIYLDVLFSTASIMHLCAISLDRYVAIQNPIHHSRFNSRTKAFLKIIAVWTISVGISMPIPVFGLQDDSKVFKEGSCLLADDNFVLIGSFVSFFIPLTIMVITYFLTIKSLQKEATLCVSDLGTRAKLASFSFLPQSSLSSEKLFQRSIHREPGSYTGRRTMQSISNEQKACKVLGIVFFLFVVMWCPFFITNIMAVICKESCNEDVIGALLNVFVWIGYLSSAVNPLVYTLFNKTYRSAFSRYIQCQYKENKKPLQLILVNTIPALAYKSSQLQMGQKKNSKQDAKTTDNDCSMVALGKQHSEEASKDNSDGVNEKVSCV
5-HT2B, sequence (P41595 whole entry): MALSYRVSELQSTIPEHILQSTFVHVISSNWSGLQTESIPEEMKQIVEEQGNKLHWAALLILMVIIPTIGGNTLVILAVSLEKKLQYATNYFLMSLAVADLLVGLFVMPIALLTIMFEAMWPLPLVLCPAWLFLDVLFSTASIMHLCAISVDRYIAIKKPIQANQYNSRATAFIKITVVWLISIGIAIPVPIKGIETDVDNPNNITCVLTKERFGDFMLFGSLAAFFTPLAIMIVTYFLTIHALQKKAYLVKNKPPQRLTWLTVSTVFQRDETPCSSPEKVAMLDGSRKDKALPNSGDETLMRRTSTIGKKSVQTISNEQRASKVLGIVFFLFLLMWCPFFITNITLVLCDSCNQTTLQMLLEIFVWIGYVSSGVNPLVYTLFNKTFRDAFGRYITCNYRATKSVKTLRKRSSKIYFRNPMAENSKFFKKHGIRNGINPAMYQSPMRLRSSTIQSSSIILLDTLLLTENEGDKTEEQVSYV

With `CCC(N)Cc1cc(OC)c(C(F)(F)F)cc1OC` (stereo not shown) [compound 29, 1-(2,5-dimethoxy-4-(trifluoromethyl)phenyl) butan-2-amine] the EC50 (5-HT2B) was 5.9 µM, the EC50 (5-HT2A) was 34 nM and the “Selectivity (EC50 2B ÷ EC50 2A)” value (5-HT2A; 5HT2A versus 5HT2B, relative agonism potencies) was 174x. The “psychedelic activity (number of head twitches in a 10-min period)” value [1] was “lower psychedelic activity”.
